From ChEMBL document CHEMBL4819053, “Alkyne-Bridged α-Conotoxin Vc1.1 Potently Reverses Mechanical Allodynia in Neuropathic Pain Models” (J Med Chem, 2021)
Activity calls are given as the source filed them.

Tests used:
[1] = target: Neuronal acetylcholine receptor subunit alpha-7 (Homo sapiens) (UniProt P36544); test: Antagonist activity at human alpha7 nAChR expressed in Xenopus laevis oocytes assessed as inhibition of Ach-induced response incubated for 5 mins by two electrode voltage-clamp assay; assay type: cell-based; conditions: Oocyte, dose 1-30 µM
[2] = target: T1, Neuronal acetylcholine receptor; alpha3/beta2 (Homo sapiens) (UniProt P17787+P32297); test: Antagonist activity at human alpha3beta2 nAChR expressed in Xenopus laevis oocytes assessed as inhibition of Ach-induced response at 30 uM incubated for 5 mins by two electrode voltage-clamp assay relative to control; assay type: cell-based; conditions: Oocyte
[3] = target: T2, GABA-B receptor (Homo sapiens) (UniProt Q9UBS5+O75899); test: Agonist activity at human GABAB expressed in HEK293T cells co-transfected with human CaV2.2-alpha1B channel assessed as inhibition of CaV2.2-mediated Ba2+ peak-current amplitude at 100 nM at -80 to 10 mV holding potential after 72 hrs by whole cell patch clamp assay relative to control; assay type: cell-based; conditions: filed as agonist
Rattus norvegicus [4] = test: Antiallodynic activity in Sprague-Dawley rat model of neuropathic mechanical allodynia assessed as increase in paw withdrawal threshold at 0.1 mg/kg, IM measured at 6 hr post last dose by von Frey test; assay type: functional
[5] = target: T2, GABA-B receptor (Homo sapiens); test: Agonist activity at human GABAB expressed in HEK293T cells co-transfected with human CaV2.2-beta3 channel assessed as inhibition of CaV2.2-mediated Ba2+ peak-current amplitude at 100 nM at -80 to 10 mV holding potential after 72 hrs by whole cell patch clamp assay relative to control; assay type: cell-based; conditions: filed as agonist
Rattus norvegicus [6] = test: Antiallodynic activity in Sprague-Dawley rat model of neuropathic mechanical allodynia assessed as increase in paw withdrawal threshold at 0.1 mg/kg, IM measured at 24 hrs post last dose by von Frey test; assay type: functional
Rattus norvegicus [7] = test: Antiallodynic activity in Sprague-Dawley rat model of neuropathic mechanical allodynia assessed as increase in paw withdrawal threshold at 0.1 mg/kg, IM measured at 4 hr post last dose by von Frey test; assay type: functional
GABA-B receptor = GABA-B receptor (Homo sapiens, UniProt O75899+Q9UBS5); test: Agonist activity at human GABAB expressed in HEK293T cells co-transfected with human CaV2.2 channel assessed as inhibition of CaV2.2-mediated Ba2+ peak-current amplitude at -80 to 10 mV holding potential after 72 hrs by whole cell patch clamp assay; assay type: cell-based
Rattus norvegicus [8] = test: Antiallodynic activity in Sprague-Dawley rat model of neuropathic mechanical allodynia assessed as increase in paw withdrawal threshold administered intramuscularly measured at 1 to 24 hrs post last dose by von Frey test; assay type: functional, organism-based; conditions: dose 0.03-0.1 mg/kg, time 1-24 hrs
[9] = target: T3, Neuronal acetylcholine receptor; alpha9/alpha10 (Homo sapiens) (UniProt Q9UGM1+Q9GZZ6); test: Antagonist activity at human alpha9/alpha10 nAChR expressed in Xenopus laevis oocytes assessed as inhibition of Ach-induced response at 30 uM incubated for 5 mins by two electrode voltage-clamp assay; assay type: cell-based; conditions: Oocyte
[10] = target: T2, GABA-B receptor (Homo sapiens); test: Agonist activity at human GABAB expressed in HEK293T cells co-transfected with human CaV2.2-alpha2delta1 channel assessed as inhibition of CaV2.2-mediated Ba2+ peak-current amplitude at 100 nM at -80 to 10 mV holding potential after 72 hrs by whole cell patch clamp assay relative to control; assay type: cell-based; conditions: filed as agonist
Rattus norvegicus [11] = test: Antiallodynic activity in Sprague-Dawley rat model of neuropathic mechanical allodynia assessed as increase in paw withdrawal threshold at 0.1 mg/kg, IM measured at 1 hr post last dose by von Frey test; assay type: functional
Rattus norvegicus [12] = test: Antiallodynic activity in Sprague-Dawley rat model of neuropathic mechanical allodynia assessed as increase in paw withdrawal threshold at 0.1 mg/kg, IM measured at 2 hr post last dose by von Frey test; assay type: functional
[13] = target: T3, Neuronal acetylcholine receptor; alpha9/alpha10 (Homo sapiens); test: Antagonist activity at human alpha9alpha10 nAChR expressed in Xenopus laevis oocytes assessed as inhibition of Ach-induced response incubated for 5 mins by two electrode voltage-clamp assay; assay type: cell-based; conditions: Oocyte, filed as antagonist, dose 1-30 µM
[14] = target: Neuronal acetylcholine receptor; alpha3/beta4 (Homo sapiens) (UniProt P30926+P32297); test: Antagonist activity at human alpha3beta4 nAChR expressed in Xenopus laevis oocytes assessed as inhibition of Ach-induced response at 1 to 30 uM incubated for 5 mins by two electrode voltage-clamp assay; assay type: cell-based; conditions: Oocyte, filed as antagonist, dose 1-30 µM
[15] = target: Nicotinic acetylcholine receptor alpha6/alpha3/beta4 (Homo sapiens) (UniProt P30926+P32297+Q15825); test: Antagonist activity at human alpha6/alpha3beta4 nAChR expressed in Xenopus laevis oocytes assessed as inhibition of Ach-induced response at 1 to 30 uM incubated for 5 mins by two electrode voltage-clamp assay; assay type: cell-based; conditions: Oocyte, filed as antagonist, dose 1-30 µM
[16] = target: T1, Neuronal acetylcholine receptor; alpha3/beta2 (Homo sapiens); test: Antagonist activity at human alpha3beta2 nAChR expressed in Xenopus laevis oocytes assessed as inhibition of Ach-induced response incubated for 5 mins by two electrode voltage-clamp assay; assay type: cell-based; conditions: Oocyte, filed as antagonist, dose 1-30 µM

Sequence of Neuronal acetylcholine receptor subunit alpha-7 (Homo sapiens) (P36544 whole entry): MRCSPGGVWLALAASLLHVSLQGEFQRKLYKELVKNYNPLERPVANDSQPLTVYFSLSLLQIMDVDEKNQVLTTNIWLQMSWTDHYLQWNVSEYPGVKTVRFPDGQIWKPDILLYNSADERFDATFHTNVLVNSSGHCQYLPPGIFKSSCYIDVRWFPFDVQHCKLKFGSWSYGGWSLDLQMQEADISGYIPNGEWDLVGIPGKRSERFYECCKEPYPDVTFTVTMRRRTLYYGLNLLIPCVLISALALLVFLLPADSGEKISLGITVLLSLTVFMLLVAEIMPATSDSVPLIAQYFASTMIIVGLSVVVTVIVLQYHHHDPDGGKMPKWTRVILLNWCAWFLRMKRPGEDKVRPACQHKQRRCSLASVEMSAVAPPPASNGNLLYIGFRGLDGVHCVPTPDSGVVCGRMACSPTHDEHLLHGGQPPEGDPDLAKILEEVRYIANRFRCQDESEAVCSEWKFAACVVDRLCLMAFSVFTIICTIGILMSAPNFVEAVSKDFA
Sequence of GABA-B receptor (Q9UBS5 whole entry): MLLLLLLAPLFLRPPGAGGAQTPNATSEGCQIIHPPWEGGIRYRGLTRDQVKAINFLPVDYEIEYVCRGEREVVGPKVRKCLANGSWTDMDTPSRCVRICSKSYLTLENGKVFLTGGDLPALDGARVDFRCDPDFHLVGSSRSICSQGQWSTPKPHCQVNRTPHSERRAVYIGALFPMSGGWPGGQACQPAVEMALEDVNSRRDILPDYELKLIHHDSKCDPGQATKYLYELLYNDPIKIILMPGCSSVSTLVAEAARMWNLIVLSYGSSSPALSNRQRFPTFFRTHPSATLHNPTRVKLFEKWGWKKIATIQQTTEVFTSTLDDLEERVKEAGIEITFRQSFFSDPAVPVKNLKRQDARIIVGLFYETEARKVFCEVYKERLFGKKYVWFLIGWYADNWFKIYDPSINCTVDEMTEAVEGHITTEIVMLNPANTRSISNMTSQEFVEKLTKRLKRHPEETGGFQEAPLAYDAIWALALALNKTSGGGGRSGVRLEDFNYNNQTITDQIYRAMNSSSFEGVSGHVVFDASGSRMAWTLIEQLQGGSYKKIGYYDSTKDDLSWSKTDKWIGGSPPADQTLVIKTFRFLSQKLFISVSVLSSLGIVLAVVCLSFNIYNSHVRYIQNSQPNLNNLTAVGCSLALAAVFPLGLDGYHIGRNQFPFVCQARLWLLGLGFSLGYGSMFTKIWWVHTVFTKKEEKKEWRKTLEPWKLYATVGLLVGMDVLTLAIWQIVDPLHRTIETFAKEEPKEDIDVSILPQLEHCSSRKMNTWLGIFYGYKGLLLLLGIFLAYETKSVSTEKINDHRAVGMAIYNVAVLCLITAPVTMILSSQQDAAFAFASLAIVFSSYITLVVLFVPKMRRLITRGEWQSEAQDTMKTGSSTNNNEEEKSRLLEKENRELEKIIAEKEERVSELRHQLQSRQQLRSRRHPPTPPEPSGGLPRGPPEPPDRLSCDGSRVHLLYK
Sequence of GABA-B receptor (O75899 whole entry): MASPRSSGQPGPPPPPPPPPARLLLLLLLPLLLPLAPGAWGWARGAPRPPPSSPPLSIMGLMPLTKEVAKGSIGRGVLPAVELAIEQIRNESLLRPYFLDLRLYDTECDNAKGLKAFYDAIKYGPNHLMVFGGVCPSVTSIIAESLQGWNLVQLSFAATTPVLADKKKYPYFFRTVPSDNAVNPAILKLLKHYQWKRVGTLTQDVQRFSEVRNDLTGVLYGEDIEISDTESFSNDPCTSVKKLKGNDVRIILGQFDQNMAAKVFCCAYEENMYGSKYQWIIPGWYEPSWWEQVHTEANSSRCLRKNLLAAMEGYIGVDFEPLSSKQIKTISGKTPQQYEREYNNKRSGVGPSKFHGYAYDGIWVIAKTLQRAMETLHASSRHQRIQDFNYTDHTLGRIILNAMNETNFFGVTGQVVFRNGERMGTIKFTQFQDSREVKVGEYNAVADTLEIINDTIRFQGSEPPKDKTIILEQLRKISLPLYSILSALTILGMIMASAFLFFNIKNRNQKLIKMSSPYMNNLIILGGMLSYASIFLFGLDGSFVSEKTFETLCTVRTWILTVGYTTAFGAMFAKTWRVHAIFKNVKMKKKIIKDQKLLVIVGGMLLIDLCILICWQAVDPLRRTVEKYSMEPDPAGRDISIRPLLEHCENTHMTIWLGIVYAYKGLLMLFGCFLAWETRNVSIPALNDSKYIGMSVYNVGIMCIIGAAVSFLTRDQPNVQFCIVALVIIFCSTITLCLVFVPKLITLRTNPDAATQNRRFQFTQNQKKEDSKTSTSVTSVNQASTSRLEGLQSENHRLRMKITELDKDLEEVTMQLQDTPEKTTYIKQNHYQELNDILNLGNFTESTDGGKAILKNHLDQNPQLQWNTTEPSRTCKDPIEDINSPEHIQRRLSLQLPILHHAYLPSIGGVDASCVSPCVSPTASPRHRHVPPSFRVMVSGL

In the case of `CC[C@H](C)[C@@H]1NC(=O)[C@H](CCC(=O)O)NC(=O)[C@@H]2CCCN2C(=O)[C@H](Cc2cnc[nH]2)NC(=O)[C@H](CC(=O)O)NC(=O)[C@H](Cc2ccc(O)cc2)NC(=O)[C@H](CC(N)=O)NC(=O)[C@@H]2CC#CC[C@@H](NC(=O)CN)C(=O)N[C@H](CSSC[C@@H](C(N)=O)NC1=O)C(=O)N[C@@H](CO)C(=O)N[C@@H](CC(=O)O)C(=O)N1CCC[C@H]1C(=O)N[C@@H](CCCNC(=N)N)C(=O)N2`, the inhibition [1] is reported as “inactive”, the inhibition [2] is reported as “inactive” and the inhibition [3] is reported as 26%. For the same molecule, the Activity (Rattus norvegicus [4]) was 4.88 g, the inhibition [5] was 26% and the Activity (Rattus norvegicus [6]) was 3.88 g. The Activity (Rattus norvegicus [7]) was 5.5 g, the IC50 (GABA-B receptor) was 13 nM and the Activity (Rattus norvegicus [8]) was “Dose-Dependent Effect”. For the same molecule, the inhibition [9] was “inactive”, the inhibition [10] was 26% and the Activity (Rattus norvegicus [11]) was 5.38 g. The Activity (Rattus norvegicus [12]) was 5.5 g.
Work on `CC[C@H](C)[C@@H]1NC(=O)[C@H](CCC(=O)O)NC(=O)[C@@H]2CCCN2C(=O)[C@H](Cc2cnc[nH]2)NC(=O)[C@H](CC(=O)O)NC(=O)[C@H](Cc2ccc(O)cc2)NC(=O)[C@H](CC(N)=O)NC(=O)[C@@H]2CCCC[C@@H](NC(=O)CN)C(=O)N[C@H](CSSC[C@@H](C(N)=O)NC1=O)C(=O)N[C@@H](CO)C(=O)N[C@@H](CC(=O)O)C(=O)N1CCC[C@H]1C(=O)N[C@@H](CCCNC(=N)N)C(=O)N2` yielded an inhibition ([2]; filed as antagonist) greater than 90%, an inhibition [3] of 0.06% and an inhibition [5] of 0.06%. For the same molecule, the inhibition [10] was 0.06%.
With `CC[C@H](C)[C@@H]1NC(=O)[C@H](CCC(=O)O)NC(=O)[C@@H]2CCCN2C(=O)[C@H](Cc2cnc[nH]2)NC(=O)[C@H](CC(=O)O)NC(=O)[C@H](Cc2ccc(O)cc2)NC(=O)[C@H](CC(N)=O)NC(=O)[C@@H]2CSSC[C@H](NC(=O)[C@@H](NC(=O)CN)CSSC[C@@H](C(N)=O)NC1=O)C(=O)N[C@@H](CO)C(=O)N[C@@H](CC(=O)O)C(=O)N1CCC[C@H]1C(=O)N[C@@H](CCCNC(=N)N)C(=O)N2` the inhibition ([1]; filed as antagonist) was “Dose-Dependent Effect”, the inhibition [3] was 25% and the inhibition [13] was “Dose-Dependent Effect”. For the same molecule, the inhibition [5] was 25%, the inhibition [14] was “Active” and the IC50 (GABA-B receptor) was 21 nM. The inhibition [15] was “Active”, the inhibition [16] was “Dose-Dependent Effect” and the inhibition [10] was 25%.
